Reference: US20220324860A1, “SUBSTITUTED PYRAZOLO[4,3-b]PYRIDINES AND THEIR USE AS GLUN2B RECEPTOR MODULATORS” (JANSSEN PHARMACEUTICA NV, priority 2019, published 2022)

Assay: Liver microsomal stability (extraction ratio)
Assay type: in vitro ADME
Details: test compound 1 μM; 0.5 mg/mL liver microsomes, NADPH 1 mM, 37° C.; predicted hepatic clearance (well-stirred model) divided by species blood flow; species not given
Experimental: Protocol for Liver Microsomal Stability (Extraction Ratio)
Liver Microsomal Stability. Microsomal stability studies (Chrovian et al, “1H-Pyrrolo[3,2-b]pyridine GluN2B-Selective Negative Allosteric Modulators”. ACS Med Chem Lett. 2019 Jan. 10; 10(3):261-266) were conducted on a Biomek® FX Robotic Liquid Handling Workstation (Beckman Coulter, Brea, Calif.), which consists of a 96-channel pipette head, a 12-position workstation deck, and a plate incubator. Test compounds (1 μM) were spiked in a reaction mix consisting of 100 mM potassium phosphate buffer (pH 7.4), 3 mM MgCl2, and 0.5 mg/mL liver microsomes from mouse, rat, and human (BD Gentest). The reaction was brought to 37° C. and initiated by adding NADPH to a final concentration of 1 mM. After mixing on the plate deck, 50 μL aliquots were excised from the reaction plate at 0, 5, 10, 20, 40, and 60 min and quenched with four volumes of acetonitrile spiked with […] of the internal standard phenytoin. Quenched plates were centrifuged at 5700 rpm for 10 min at 4° C., and supernatant was diluted 1:3 in water before LC/MS/MS analysis. The compound half-lives were derived from plots of the ln of percent remaining compound over time to determine the intrinsic clearance. The predicted hepatic clearance was derived from the intrinsic clearance value using equations from the well-stirred model (Current Drug Metabolism, 2008, 9, 940-951), where no correction was made plasma protein binding and the blood to plasma concentration ratio was assumed to be one. The extraction ratio (ER) was calculated by dividing the predicted hepatic clearance by species blood flow (Q), where Q is 90, 55, and 21.7 mL/min/kg for mouse, rat and human, respectively.

Compound | Extraction Ratio @ 1 μM
CC[S+]([O-])Cn1ncc2ncc(-c3cccc(C(F)(F)F)c3F)cc21 (racemic) [Example 86, (RS)-1-(Ethylsulfinylmethyl)-6-[2-fluoro-3-(trifluoromethyl)phenyl]pyrazolo[4,3-b]pyridine] | 0.50
CCC(=O)Cn1nc(C)c2ncc(-c3ccc(F)c(C(F)F)c3)cc21 [Example 36, 1-(6-(3-(Difluoromethyl)-4-fluorophenyl)-3-methyl-1H-pyrazolo[4,3-b]pyridin-1-yl)butan-2-one] | 0.72
CC(=O)Cn1ncc2ncc(-c3ccc(F)c(OC(F)F)c3)cc21 [Example 25, 1-[6-[3-(Difluoromethoxy)-4-fluoro-phenyl]pyrazolo[4,3-b]pyridin-1-yl]propan-2-one] | 0.64
CCC(=O)Cn1ncc2ncc(-c3cc(F)c(F)c(F)c3)cc21 [Example 42, 1-[6-(3,4,5-Trifluorophenyl)pyrazolo[4,3-b]pyridin-1-yl]butan-2-one] | 0.63
O=C(Cn1ncc2ncc(-c3cccc(C(F)F)c3)cc21)C1CC1 [Example 61, 1-Cyclopropyl-2-[6-[3-(difluoromethyl)phenyl]pyrazolo[4,3-b]pyridin-1-yl]ethanone] | 0.43
CCC(=O)Cn1ncc2ncc(-c3ccc(F)c(C(F)F)c3)cc21 [Example 4, 1-[6-[3-(Difluoromethyl)-4-fluoro-phenyl]pyrazolo[4,3-b]pyridin-1-yl]butan-2-one] | 0.66
CC[S+]([O-])Cn1ncc2ncc(-c3ccc(F)c(C(F)F)c3)cc21 (single isomer, unassigned) [Example 85, (R*)-6-(3-(Difluoromethyl)-4-fluorophenyl)-1-((ethylsulfinyl)methyl)-1H-pyrazolo[4,3-b]pyridine] | 0.46
Cc1c(F)ccc(-c2cnc3cnn(CC(=O)C4CC4)c3c2)c1C [Example 78, 1-Cyclopropyl-2-[6-(4-fluoro-2,3-dimethyl-phenyl)pyrazolo[4,3-b]pyridin-1-yl]ethanone] | 0.52
CCN1CC(Cn2ncc3ncc(-c4ccc(F)c(C(F)F)c4)cc32)OC1=O (racemic) [Example 131, (RS)-5-[[6-[3-(Difluoromethyl)-4-fluoro-phenyl]pyrazolo[4,3-b]pyridin-1-yl]methyl]-3-ethyl-oxazolidin-2-one] | 0.58
CCC(=O)Cn1ncc2ncc(-c3cccc(C(F)(F)F)c3F)cc21 [Example 38, 1-[6-[2-Fluoro-3-(trifluoromethyl)phenyl]pyrazolo[4,3-b]pyridin-1-yl]butan-2-one] | 0.61
